Results from patent US10004701B2, “Methods and compositions for treating infection” (UNIVERSITY OF ROCHESTER, priority 2012, dated 2018).
Where a name gives a salt, the structure may show the parent alone. Read-outs that look alike come from different tables or passages of the source.

Assays:
Experiment in all cases: AK assay 384-well format, Prestwick library screening
E. faecium = assay type: cell-based, Enterococcus faecium; conditions: 50 μM final drug concentration; for fold induction at 50 µM: Enterococcus faecium, 3 h
[1] = system: S. aureus strain USA300-0114; assay type: cell-based, Staphylococcus aureus; conditions: 50 μM final drug concentration; for fold induction at 50 µM: Staphylococcus aureus, USA300, 3 h
K. pneumoniae = assay type: cell-based, Klebsiella pneumoniae; conditions: 50 μM final drug concentration; for fold induction at 50 µM: Klebsiella pneumoniae, 3 h
[2] = system: A. baumannii strain 98-37-09; assay type: cell-based, Acinetobacter baumannii; conditions: 50 μM final drug concentration; for fold induction at 50 µM: Acinetobacter baumannii, 983709, 3 h
P. aeruginosa = assay type: cell-based, Pseudomonas aeruginosa; conditions: 50 μM final drug concentration; for fold induction at 50 µM: Pseudomonas aeruginosa, 3 h
E. cloacae = assay type: cell-based, Enterobacter cloacae; conditions: 50 μM final drug concentration; for fold induction at 50 µM: Enterobacter cloacae, 3 h
E. coli = assay type: cell-based, Escherichia coli; conditions: 50 μM final drug concentration; for fold induction at 50 µM: Escherichia coli, 3 h
[3] = planktonic, cutoff for positive-scoring molecules 3-fold increase, read-out: AK-based Prestwick Library Screening Results, E. faecium (fold increase in extracellular AK activity)
[4] = planktonic, cutoff for positive-scoring molecules 3-fold increase, read-out: AK-based Prestwick Library Screening Results, S. aureus (fold increase in extracellular AK activity)
[5] = planktonic, cutoff for positive-scoring molecules 3-fold increase, read-out: AK-based Prestwick Library Screening Results, K. pneumoniae (fold increase in extracellular AK activity)
[6] = planktonic, cutoff for positive-scoring molecules 3-fold increase, read-out: AK-based Prestwick Library Screening Results, A. baumannii (fold increase in extracellular AK activity)
[7] = planktonic, cutoff for positive-scoring molecules 3-fold increase, read-out: AK-based Prestwick Library Screening Results, P. aeruginosa (fold increase in extracellular AK activity)
[8] = planktonic, cutoff for positive-scoring molecules 3-fold increase, read-out: AK-based Prestwick Library Screening Results, E. cloacae (fold increase in extracellular AK activity)
[9] = planktonic, cutoff for positive-scoring molecules 3-fold increase, read-out: AK-based Prestwick Library Screening Results, E. coli (fold increase in extracellular AK activity)
[10] = cutoff for positive-scoring molecules 3-fold increase
[11] = cutoff for positive-scoring molecules 3-fold increase, read-out: AK-based Prestwick Library Screening Results, E. faecium (fold increase in extracellular AK activity)
[12] = cutoff for positive-scoring molecules 3-fold increase, read-out: AK-based Prestwick Library Screening Results, S. aureus (fold increase in extracellular AK activity)
[13] = cutoff for positive-scoring molecules 3-fold increase, read-out: AK-based Prestwick Library Screening Results, K. pneumoniae (fold increase in extracellular AK activity)
[14] = cutoff for positive-scoring molecules 3-fold increase, read-out: AK-based Prestwick Library Screening Results, A. baumannii (fold increase in extracellular AK activity)
[15] = cutoff for positive-scoring molecules 3-fold increase, read-out: AK-based Prestwick Library Screening Results, P. aeruginosa (fold increase in extracellular AK activity)
[16] = cutoff for positive-scoring molecules 3-fold increase, read-out: AK-based Prestwick Library Screening Results, E. cloacae (fold increase in extracellular AK activity)
[17] = cutoff for positive-scoring molecules 3-fold increase, read-out: AK-based Prestwick Library Screening Results, E. coli (fold increase in extracellular AK activity)

Row | Compound | fold induction at 50 µM (E. faecium; [3]) | fold induction at 50 µM [1, 4] | fold induction at 50 µM (K. pneumoniae; [5]) | fold induction at 50 µM [2, 6] | fold induction at 50 µM (P. aeruginosa; [7]) | fold induction at 50 µM (E. cloacae; [8]) | fold induction at 50 µM (E. coli; [9]) | fold induction at 50 µM (E. faecium; [11]) | fold induction at 50 µM [1, 12] | fold induction at 50 µM (K. pneumoniae; [13]) | fold induction at 50 µM [2, 14] | fold induction at 50 µM (P. aeruginosa; [15]) | fold induction at 50 µM (E. cloacae; [16]) | fold induction at 50 µM (E. coli; [17]) | other results
1 | COc1c(O)cc2c(c1O)[C@@H]1O[C@H](CO)[C@@H](O)[C@H](O)[C@H]1OC2=O [Bergenin monohydrate] | 0.9 | 0.9 | 0.8 | 0.9 | 0.8 | 1.1 | 0.7 |  |  |  |  |  |  |  | 
2 | C[C@@H]1O[C@@H](O[C@@H]2C=C3CC[C@@H]4[C@H](CC[C@]5(C)[C@@H](c6ccc(=O)oc6)CC[C@]45O)[C@@]3(C)CC2)[C@H](O)[C@H](O)[C@H]1O [Proscillaridin A] |  |  |  |  |  |  |  |  |  |  |  |  |  |  | AK-based Prestwick library screening result, E. faecium (fold increase in extracellular AK activity) (E. faecium; planktonic E. faecium, […]): 0.8; AK-based Prestwick library screening result, S. aureus (fold increase in extracellular AK activity) ([1]; planktonic S. aureus, […]): 0.6; AK-based Prestwick library screening result, K. pneumoniae (fold increase in extracellular AK activity) (K. pneumoniae; planktonic K. pneumoniae, […]): 0.7; AK-based Prestwick library screening result, A. baumannii (fold increase in extracellular AK activity) ([2]; planktonic A. baumannii, […]): 0.8; AK-based Prestwick library screening result, P. aeruginosa (fold increase in extracellular AK activity) (P. aeruginosa; planktonic P. aeruginosa, […]): 0.9; AK-based Prestwick library screening result, E. cloacae (fold increase in extracellular AK activity) (E. cloacae; planktonic E. cloacae, […]): 0.9; AK-based Prestwick library screening result, E. coli (fold increase in extracellular AK activity) (E. coli; planktonic E. coli, […]): 0.9
3 | COc1c2ccoc2nc2c(OC)c(OCC(O)C(C)(C)O)ccc12 (stereo not shown) [Evoxine] | 0.8 | 0.6 | 0.7 | 0.7 | 0.8 | 1.1 | 0.7 |  |  |  |  |  |  |  | 
4 | CCCOc1ccccc1-c1nc2nn[nH]c2c(=O)[nH]1 [Zaprinast] |  |  |  |  |  |  |  |  |  |  |  |  |  |  | fold induction at 50 µM (E. faecium; planktonic E. faecium, cutoff for positive-scoring molecules 3-fold increase, read-out: AK-based Prestwick Library Screening Results, E. faecium (increase in extracellular AK activity)): 1; fold induction at 50 µM ([1]; planktonic S. aureus, cutoff for positive-scoring molecules 3-fold increase, read-out: AK-based Prestwick Library Screening Results, S. aureus (increase in extracellular AK activity)): 0.6; fold induction at 50 µM (K. pneumoniae; planktonic K. pneumoniae, cutoff for positive-scoring molecules 3-fold increase, read-out: AK-based Prestwick Library Screening Results, K. pneumoniae (increase in extracellular AK activity)): 0.5; fold induction at 50 µM ([2]; planktonic A. baumannii, cutoff for positive-scoring molecules 3-fold increase, read-out: AK-based Prestwick Library Screening Results, A. baumannii (increase in extracellular AK activity)): 0.6; fold induction at 50 µM (P. aeruginosa; planktonic P. aeruginosa, cutoff for positive-scoring molecules 3-fold increase, read-out: AK-based Prestwick Library Screening Results, P. aeruginosa (increase in extracellular AK activity)): 0.7; fold induction at 50 µM (E. cloacae; planktonic E. cloacae, cutoff for positive-scoring molecules 3-fold increase, read-out: AK-based Prestwick Library Screening Results, E. cloacae (increase in extracellular AK activity)): 0.8; fold induction at 50 µM (E. coli; planktonic E. coli, cutoff for positive-scoring molecules 3-fold increase, read-out: AK-based Prestwick Library Screening Results, E. coli (increase in extracellular AK activity)): 0.7
5 | C[C@]12CC[C@H]3[C@@H](CCC4=CC(=O)CC[C@@]43C)[C@@H]1CC[C@@H]2C(=O)CO [Deoxycorticosterone] |  |  |  |  |  |  |  |  |  |  |  |  |  |  | AK-based Prestwick Library Screening Results, E. faecium (fold increase in extracellular AK activity) (E. faecium; [10]): 1.2; AK-based Prestwick Library Screening Results, S. aureus (fold increase in extracellular AK activity) [1, 10]: 1.6; AK-based Prestwick Library Screening Results, K. pneumoniae (fold increase in extracellular AK activity) (K. pneumoniae; [10]): 1.2; AK-based Prestwick Library Screening Results, A. baumannii (fold increase in extracellular AK activity) [2, 10]: 1.3; AK-based Prestwick Library Screening Results, P. aeruginosa (fold increase in extracellular AK activity) (P. aeruginosa; [10]): 1.3; AK-based Prestwick Library Screening Results, E. cloacae (fold increase in extracellular AK activity) (E. cloacae; [10]): 1.3; AK-based Prestwick Library Screening Results, E. coli (fold increase in extracellular AK activity) (E. coli; [10]): 1.2
6 | Nc1ccc(S(=O)(=O)Nc2ccc(Cl)nn2)cc1 [Sulfachloropyridazine] |  |  |  |  |  |  |  | 1 | 1.1 | 1.1 | 2.1 | 1 | 1.5 | 1 | 
7 | Cc1cccc(C)c1N=C1NCCCS1 [Xylazine] |  |  |  |  |  |  |  |  |  |  |  |  |  |  | fold induction at 50 µM (E. faecium; planktonic E. faecium, […], read-out: AK-based Prestwick Library Screening Results, E. faecium (increase in extracellular AK activity)): 0.9; fold induction at 50 µM ([1]; planktonic S. aureus, […], read-out: AK-based Prestwick Library Screening Results, S. aureus (increase in extracellular AK activity)): 0.8; fold induction at 50 µM (K. pneumoniae; planktonic K. pneumoniae, […], read-out: AK-based Prestwick Library Screening Results, K. pneumoniae (increase in extracellular AK activity)): 0.7; fold induction at 50 µM ([2]; planktonic A. baumannii, […], read-out: AK-based Prestwick Library Screening Results, A. baumannii (increase in extracellular AK activity)): 0.9; fold induction at 50 µM (P. aeruginosa; planktonic P. aeruginosa, […], read-out: AK-based Prestwick Library Screening Results, P. aeruginosa (increase in extracellular AK activity)): 0.9; fold induction at 50 µM (E. cloacae; planktonic E. cloacae, […], read-out: AK-based Prestwick Library Screening Results, E. cloacae (increase in extracellular AK activity)): 1.4; fold induction at 50 µM (E. coli; planktonic E. coli, […], read-out: AK-based Prestwick Library Screening Results, E. coli (increase in extracellular AK activity)): 0.8
8 | Nc1cc(-c2ccncc2)c[nH]c1=O [Amrinone] |  |  |  |  |  |  |  | 1 | 1.1 | 1.1 | 1.2 | 1 | 44 | 1.3 | 
9 | CNCCCC1c2ccccc2C=Cc2ccccc21 [Protriptyline hydrochloride] |  |  |  |  |  |  |  | 1 | 2.8 | 1.1 | 1.1 | 1.2 | 1.4 | 1.2 | 
10 | O=C(O)c1cc(=O)c2c(OCC(O)COc3cccc4oc(C(=O)O)cc(=O)c34)cccc2o1 [Cromolyn disodium salt] | 0.9 | 0.7 | 0.7 | 0.9 | 0.8 | 1 | 0.7 |  |  |  |  |  |  |  | 
